According to patent publication US6632829B2, “Sulfonamides and derivatives thereof that modulate the activity of endothelin” (Texas Biotechnology Corp., priority 1996, dated 2003):

Legend:
human ETA receptors = target: T1, human ETA receptors (Homo sapiens, UniProt P25101); assay: Endothelin binding inhibition, Binding Test #1: competition with 125I-ET-1 for ETA receptors on TE 671 cell membranes
T1 construct: endogenous in cells; host or cells: TE 671 cells (ATCC HTB 139), membrane preparation
T1 sequence (P25101 21-427): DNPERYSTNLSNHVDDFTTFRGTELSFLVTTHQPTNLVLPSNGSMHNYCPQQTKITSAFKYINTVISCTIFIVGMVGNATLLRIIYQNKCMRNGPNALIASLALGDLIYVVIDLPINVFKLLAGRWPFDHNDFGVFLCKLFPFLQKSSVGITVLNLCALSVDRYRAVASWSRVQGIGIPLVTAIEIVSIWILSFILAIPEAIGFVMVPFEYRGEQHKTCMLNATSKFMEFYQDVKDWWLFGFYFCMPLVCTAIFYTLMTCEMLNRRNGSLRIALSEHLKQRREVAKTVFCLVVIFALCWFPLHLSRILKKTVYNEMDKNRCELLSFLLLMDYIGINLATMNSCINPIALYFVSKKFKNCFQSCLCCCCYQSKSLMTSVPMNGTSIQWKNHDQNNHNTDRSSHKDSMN
Experimental: (§1) Cells from multiple flasks were collected by scraping, pooled and centrifuged for 10 min at 190×g. The cells were resuspended in phosphate buffered saline (PBS) containing 10 mM EDTA using a Tenbroeck homogenizer. The suspension was centrifuged at 4° C. at 57,800×g for 15 min, the pellet was resuspended in 5 mL of buffer A (5 mM HEPES buffer, pH 7.4 containing aprotinin (100 KIU/mL)) and then frozen and thawed once. 5 mL of Buffer B (5 mM HEPES Buffer, pH 7.4 containing 10 mM MnCl2 and 0.001% deoxyribonuclease Type 1) was added, the suspension mixed by inversion and then incubated at 37° C. for 30 minutes. The mixture was centrifuged at 57,800×g as described above, the pellet washed twice with buffer A and then resuspended in buffer C (30 mM HEPES buffer, pH 7.4 containing aprotinin (100 KIU/mL) to give a final protein concentration of 2 mg/mL and stored at −70° C. until use.
The membrane suspension (50 μL), containing up to 8 μg of membrane protein, was added to each of (A), (B), or (C). […] Alternatively, the incubation was conducted at 24° C.
The supernatant, containing unbound radioactivity, was decanted and the pellet counted on a Genesys multiwell gamma counter. The degree of inhibition of binding (D) was calculated according to the following equation: [formula]
Each test was generally performed in triplicate.

human ETB receptor = target: T2, human ETB receptor (Homo sapiens, UniProt P24530); assay: Endothelin binding inhibition, Binding Test #2: competition with 125I-ET-1 for ETB receptors on transfected COS7 cell membranes; details: for inhibition at 100 µM: read-out: ETB % inhibition @ 100 μM, @ 100 μM, incubation at 24° C.
T2 construct: expressed in transfected cells; host or cells: COS7 cells
T2 sequence (P24530 27-442): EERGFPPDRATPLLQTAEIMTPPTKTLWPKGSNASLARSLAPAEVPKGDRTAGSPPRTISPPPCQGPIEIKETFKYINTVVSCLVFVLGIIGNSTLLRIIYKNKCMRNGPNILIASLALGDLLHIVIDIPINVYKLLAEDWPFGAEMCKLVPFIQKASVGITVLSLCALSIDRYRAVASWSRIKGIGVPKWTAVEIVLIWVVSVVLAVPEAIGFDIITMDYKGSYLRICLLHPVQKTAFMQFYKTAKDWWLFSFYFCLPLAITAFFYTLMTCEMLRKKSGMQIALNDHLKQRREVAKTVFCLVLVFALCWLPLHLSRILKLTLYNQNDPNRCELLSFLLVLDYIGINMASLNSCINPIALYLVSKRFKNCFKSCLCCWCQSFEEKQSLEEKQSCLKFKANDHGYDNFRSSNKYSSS
Excerpt: Compounds that are potential endothelin antagonists are identified by testing their ability to compete with ^125I-labeled ET-1 for binding to human ETA receptors or ETB receptors present on isolated cell membranes. The effectiveness of the test compound as an antagonist or agonist of the biological tissue response of endothelin can also be assessed by measuring the effect on endothelin induced contraction of isolated rat thoracic aortic rings. The ability of the compounds to act as antagonists or agonists for ETB receptors can be assess by testing the ability of the compounds are to inhibit endothelin-1 induced prostacyclin release from cultured bovine aortic endothelial cells.
COS7 cells were transfected with DNA encoding the ETB receptor, The resulting cells, which express the human ETB receptor, were grown to confluence in T-150 flasks. Membrane was prepared as described above. The binding assay was performed as described above using the membrane preparation diluted with binding buffer to a concentration of 1 μg/50 μL.
as §1, with “Briefly, the COS7 cells, described above, that had been transfected with DNA encoding the ETB receptor and express the human ETB receptor on their surfaces were grown to confluence in T-175 flasks. Cells” for “Cells”, “C.” for “C. at”, “once. Five” for “once. 5”, “2 mg/mL.” for “2 mg/mL and stored at −70° C. until use.”
The binding assay was performed as described above using the membrane preparation diluted to give 1 μg/50 μL of binding buffer.

[1] = incubation at 24° C. (values marked †)
[2] = incubation at 4° C. (values without †)

IC50 (human ETA receptors; [1]) | IC50 (human ETB receptor; [1]) | IC50 (human ETA receptors; [2]) | IC50 (human ETB receptor; [2]) | inhibition at 100 µM (human ETB receptor) | SMILES
0.0039 µM | 12.2 µM | – | – | – | COc1cc(C#N)c(NC(=O)c2sccc2S(=O)(=O)Nc2onc(C)c2Cl)cc1OC [N-(4-chloro-3-methyl-5-isoxazolyl)-2-[{2-cyano-4,5-dimethoxyphenyl)aminocarbonyl]thiophene-3-sulfonamide]
0.0055 µM | 0.364 µM | – | – | – | Cc1onc(NS(=O)(=O)c2c(Cc3ccc4c(c3)OCO4)sc3ccccc23)c1Cl [N-(4-chloro-5-methyl-3-isoxazolyl)-2-[3,4-(methylenedioxy)benzyl]benzo[b]thiophene-3-sulfonamide]
0.55 µM | 52.6 µM | – | – | – | Cc1noc(NS(=O)(=O)c2c(-c3ccc4c(c3)OCO4)sc3ccccc23)c1Cl [N-(4-chloro-3-methyl-5-isoxazolyl)-2-[3,4-(methylenedioxy)phenyl]benzo[b]thiophene-3-sulfonamide]
28.1 µM | 60.6 µM | – | – | – | Cc1noc(NS(=O)(=O)c2ccc(C(=O)Nc3ccccc3)s2)c1Cl [N-(4-chloro-3-methyl-5-isoxazolyl)-5-(phenylaminocarbonyl)thiophene-2-sulfonamide]
0.011 ± 0.005 µM | 0.936 ± 0.095 µM | – | – | – | Cc1noc(NS(=O)(=O)c2c(Cc3ccc4c(c3)OCO4)sc3ccccc23)c1Cl [N-(4-chloro-3-methyl-5-isoxazolyl)-2-[(3,4-methylenedioxy)benzyl]benzo[b]thiophene-3-sulfonamide]
0.003 µM | 355 µM | – | – | – | Cc1cc2c(cc1NC(=O)c1sccc1S(=O)(=O)Nc1onc(C)c1Cl)OCO2 [N-(4-chloro-3-methyl-5-isoxazolyl)-2-[2-methyl-4,5-(methylenedioxy)phenylaminocarbonyl]thiophene-3-sulfonamide]
4.41 µM | – | – | – | 31% | Cc1noc(NS(=O)(=O)c2ccsc2C(=O)Oc2ccccc2)c1Cl [N-(4-chloro-3-methyl-5-isoxazolyl)-2-(phenoxycarbonyl)thiophene-3-sulfonamide]

More lines, now with the values behind:

SMILES | IC50 (human ETA receptors; [1]) | IC50 (human ETB receptor; [1]) | IC50 (human ETA receptors; [2]) | IC50 (human ETB receptor; [2]) | inhibition at 100 µM (human ETB receptor)
Cc1ccc(OC(=O)c2sccc2S(=O)(=O)Nc2onc(C)c2Br)c(C)c1 [N-(4-bromo-3-methyl-5-isoxazolyl)-2-[(2,4-dimethylphenoxy)carbonyl]thiophene-3-sulfonamide] | 0.291 µM | 43.2 µM | – | – | –
Cc1noc(NS(=O)(=O)c2ccsc2C(=O)Oc2ccc3c(c2)OCO3)c1Br [N-(4-bromo-3-methyl-5-isoxazolyl)-2-[(3,4-methylenedioxy)phenoxycarbonyl]thiophene-3-sulfonamide] | 0.0073 µM | 6 µM | – | – | –
CCCc1cc2c(cc1OCc1sccc1S(=O)(=O)Nc1onc(C)c1Br)OCO2 [N-(4-bromo-3-methyl-5-isoxazolyl)-2-{[4,5-(methylenedioxy)-2-propylphenoxy]methyl}thiophene-3-sulfonamide] | 0.107 µM | 0.407 µM | – | – | –
COc1ccc(Cc2sc3ccccc3c2S(=O)(=O)Nc2onc(C)c2Br)cc1 [N-(4-bromo-3-methyl-5-isoxazolyl)-2-(4-methoxybenzyl)benzo[b]thiophene-3-sulfonamide] | 0.051 µM | 1.5 µM | – | – | –
Cc1cc(C)c(CCc2sccc2S(=O)(=O)Nc2onc(C)c2Br)c(C)c1 [N-(4-bromo-3-methyl-5-isoxazolyl)-2-(2,4,6-trimethylphenethyl)thiophene-3-sulfonamide] | 0.0417 µM | 1.23 µM | – | – | –
Cc1ccc(C=CCc2ccsc2S(=O)(=O)Nc2onc(C)c2Br)c(C)c1 [N-(4-bromo-3-methyl-5-isoxazolyl)-3-(2,4-dimethylcinnamyl)thiophene-2-sulfonamide] | 0.18 µM | 2.97 µM | – | – | –
Cc1cc2c(cc1C=CCc1ccsc1S(=O)(=O)Nc1onc(C)c1Br)OCO2 [N-(4-bromo-3-methyl-5-isoxazolyl)-3-[2-methyl-4,5-(methylenedioxy)cinnamyl]thiophene-2-sulfonamide] | ~0.1 µM | ~6 µM | – | – | –
Cc1noc(NS(=O)(=O)c2ccsc2C(=O)OCCc2ccc3c(c2)OCO3)c1Cl [N-(4-chloro-3-methy-5-isoxazolyl)-2-[2-(3,4-methylenedioxyphenyl)]ethoxycarbonyl-3-sulfonamide] | 0.23 µM | 6.2 µM | – | – | –
Cc1noc(NS(=O)(=O)c2csc(-c3ccccc3C=O)c2)c1Br [N-(4-bromo-3-methyl-5-isoxazolyl)-5-(2-formylphenyl)thiophene-3-sulfonamide] | 12.3 µM | 1.28 ± 0.71 µM | 3.46 µM | 0.529 µM | –
CC(=O)OCc1c(C)cc(C)c(NC(=O)c2sccc2S(=O)(=O)Nc2onc(C)c2C)c1C [N-(3,4-dimethyl-5-isoxazolyl)-2-(3-acetoxymethyl-2,4,6-trimethylphenylaminocarbonyl)thiophene-3-sulfonamide] | 0.00097 µM | 156 µM | – | – | –
Cc1cc(C)c(NC(=O)c2sccc2S(=O)(=O)Nc2onc(C)c2C)c(C)c1CO [N-(3,4-dimethyl-5-isoxazolyl)-2-(3-hydroxymethyl-2,4,6-trimethylphenylaminocarbonyl)thiophene-3-sulfonamide] | 0.00111 µM | 33.8 µM | – | – | –
COc1ccccc1OC(=O)c1sccc1S(=O)(=O)Nc1onc(C)c1Br [N-(4-bromo-3-methyl-5-isoxazolyl)-2-[(2-methoxylphenoxy)carbonyl]thiophene-3-sulfonamide] | 0.761 µM | – | – | – | 29%
Cc1cc(C)c(C=CCc2ccsc2S(=O)(=O)Nc2onc(C)c2Br)c(C)c1 [N-(4-bromo-3-methyl-5-isoxazolyl)-3-(2,4,6-trimethylcinnamyl)thiophene-2-sulfonamide] | 0.049 µM | 1.86 µM | – | – | –
Cc1noc(NS(=O)(=O)c2c(Cc3ccc4c(c3)OCO4)sc3ccccc23)c1Br [N-(4-bromo-3-methyl-5-isoxazolyl)-2-[3,4-(methylenedioxy)benzyl]benzo[b]thiophene-3-sulfonamide] | 0.0074 ± 0.0011 µM | 0.939 ± 0.262 µM | 0.0015 ± 0.0014 µM | 0.324 ± 0.78 µM | –
CCCCc1ccc(-c2ccsc2S(=O)(=O)Nc2onc(C)c2Br)cc1 [N-(4-bromo-3-methyl-5-isoxazolyl)-3-(4-butylphenyl)thiophene-2-sulfonamide] | – | 6.11 µM | 0.16 µM | – | –
Cc1cc(C)c(C(=O)O)c(C)c1NC(=O)c1sccc1S(=O)(=O)Nc1onc(C)c1Cl [N-(4-chloro-3-methyl-5-isoxazolyl)-2-(3-carboxyl-2,4,6-trimethylphenylaminocarbonyl)thiophene-3-sulfonamide] | 0.0119 µM | 22.4 µM | – | – | –
